# pIC50: −log10 of the molar value. “Also recorded” adds a separate entry of the source.
# How the values were obtained:
# [1] = test system: PLX4032-resistant SK-MEL-5, SK-MEL-28 and WM3248 cells; experiment: Spheroid formation, other PLX4032-resistant melanoma lines; assay type: cell-based; settings: PLX4032-resistant SK-MEL-5, SK-MEL-28, WM3248; FIGS. 5B, 5E
# Procedure: (§1) Cancer cells were maintained under attached conditions in growth media containing DMEM (Invitrogen, Frederick, Md.) supplemented with 4.5 mg/ml D-glucose, […] L-glutamine, 100 mg/ml sodium pyruvate, and 5% fetal calf serum. For spheroid culture, monolayer cultures were dissociated with 0.25% trypsin and the cells were collected by centrifugation, and resuspended in spheroid media, consisting of DMEM/F12 (1:1) (DMT-10-090-CV, Mediatech INC, Manassa, Va.) containing 2% B27 serum-free supplement (17504-044, Invitrogen, Frederick, Md.) 20 ng/ml EGF (E4269, Sigma, St. Louis), 0.4% bovine serum albumin (B4287, Sigma) and […] insulin (19278 Sigma, St. Louis, Mo.) and plated at 40,000 cells per 9.6 cm^2 well in six well ultra-low attachment Costar cluster dishes (4371, Corning, Tewksbury, Mass.). Parallel cultures were plated in spheroid media on conventional plastic dishes for growth as monolayer cultures.
# (§2) A375, SK-MEL-5 and SK-MEL-28 cell lines were maintained in DMEM growth medium containing 10% FCS, 2 mM L-glutamine and 1 mM sodium pyruvate. […]
# (§3) The impact of verteporfin on additional PLX4032 resistant melanoma cancer cell lines was examined. […] To determine whether YAP1 and TAZ can antagonize PLX4032 action, constitutively active YAP1 and TAZ were expressed in wild-type SK-MEL-28 cells and the impact on cell proliferation was monitored.
# [2] = test system: A375-PLX-R spheroid cell-derived tumors; experiment: Tumor xenograft assay, A375-PLX-R spheroid cell-derived tumors; assay type: in vivo, NSG mice
# Procedure: Cells were grown for ten days as spheroids and a single cell suspension, prepared by trypsin digestion, was resuspended in phosphate buffered saline containing 30% Matrigel and 100 μl containing 0.1 million cells were injected subcutaneously at the two front flanks of NOD/scid/IL2 receptor gamma-knockout mice (NSG mice) using a 26.5 gauge needle. PLX4032 was dissolved in phosphate-buffered saline containing 10% DMSO and delivered at 20 mg/kg by oral gavage in […] three times per week (M/W/F). Verteporfin was dissolved in phosphate-buffered saline containing 10% DMSO and 0-100 mg/kg was delivered by intraperitoneal injection of […] three times per week (M/W/F). Five mice were used per group (two tumors per mouse) and treatment was initiated two days after tumor cell injection. Tumor growth was monitored by measuring tumor diameter and calculating tumor volume using the formula, volume=4/3π×(diameter/2)^3. Mice were euthanized by injection of 250 μl of a 2.5% stock of Avertin per mouse followed by cervical dislocation of the neck. Tumor samples were harvested to prepare extract for immunoblot and sections for immunostaining. These experiments were reviewed and approved by the University of Maryland-Baltimore Institutional Animal Care and Use Committee. The plotted values are mean±SEM and significance were determined using the students t-test.
# [3] = test system: PLX4032-resistant SK-MEL-5, SK-MEL-28 and WM3248 cells; experiment: Matrigel invasion, other PLX4032-resistant melanoma lines; assay type: cell-based; settings: PLX4032-resistant SK-MEL-5, SK-MEL-28, WM3248; FIGS. 5C, 5F
# Procedure: (§4) Matrigel (BD Biolabs) was diluted in 0.01 M Tris-HCL/0.7% NaCl, filter-sterilized and 0.1 ml was used to cover the membrane in BD BioCoat cell inserts (#353097, […], 24 well format, membrane growth area=0.33 cm^2). Cells 25,000/well were plated in […] of growth media containing 1% FCS atop the Matrigel. Growth media containing 10% FCS was added to the lower well and cells were incubated overnight at 37 C. The following day, excess cells from the top side of the membrane were removed with a cotton swab, and the membrane was rinsed in phosphate-buffered saline, fixed with 4% paraformaldehyde for 10 minutes, washed and stained in […] DAPI for 10 minutes to visualize the cells. The underside of the membrane was photographed with an inverted fluorescent microscope to count the number of cells that had migrated through the Matrigel layer (38).
# as §2, §3
# tumor-derived A375 cells = experiment: Matrigel invasion of tumor-derived A375 cells; assay type: cell-based; settings: sensitive (A375) cells, invasion assayed without drug, FIG. 6G
# Procedure: Tumors were initiated and treated with PLX4032 or verteporfin as above. At 4 weeks, the tumors were removed, mechanically dissociated and dispersed as single cell suspensions with 0.25% trypsin for 10 min and plated as monolayer cultures. After 24 h, the cells were harvested and seeded at 25,000 cells/well atop a 0.1 ml matrigel layer in Millicell (1 cm diameter, […]) chambers in the presence of a serum gradient (38). After 18 h, the membranes were stained with DAPI and the nuclei of migrated cells were visualized by inverted fluorescence microscopy (38).
# A375 cells [4] = experiment: Matrigel invasion assay, A375; assay type: cell-based
# Procedure: as §4
# A375 cells [5] = experiment: Spheroid formation assay, A375; assay type: cell-based
# Procedure: as §1
# A375-PLX-R cells [6] = experiment: Matrigel invasion assay, A375-PLX-R; assay type: cell-based; parameters: suppression of matrigel invasion at higher verteporfin concentrations: dose or concentration left out as unconfirmed
# Procedure: as §4
# (§5) A375, SK-MEL-5 and SK-MEL-28 cell lines were maintained in DMEM growth medium containing 10% FCS, 2 mM L-glutamine and 1 mM sodium pyruvate. The WM3248 cells were maintained in MCDB153:L15 (4:1) growth medium containing 2% FCS, […] insulin and 1.68 mM CaCl2. To create PLX4032-resistant cells, A375, SK-MEL-5, SK-MEL-28 and WM3248 cells were treated with […] in monolayer culture in growth medium for several weeks. The surviving cells were then expanded and cultured in increasing doses of PLX4032 up to […]. The resulting PLX4032-resistant cells, designated PLX4032-resistant (e.g., A375-PLX-R) were routinely maintained in the presence of […] PLX4032.
# A375-PLX-R cells [7] = experiment: Spheroid formation assay, A375-PLX-R; assay type: cell-based
# Procedure: as §1, §5
# A375-PLX-R cells [8] = experiment: Cell proliferation, PLX4032-resistant A375-PLX-R cells; assay type: cell-based; settings: FIG. 1A
# Procedure: as §5
compound,measurement,setting,value
CCCS(=O)(=O)Nc1ccc(F)c(C(=O)c2c[nH]c3ncc(-c4ccc(Cl)cc4)cc23)c1F [PLX4032],spheroid formation,[1],did not reduce
same,ERK1/2-P level in tumors,[2]; PLX4032 20 mg/kg in the presence of verteporfin,reduced
same,tumor growth / tumor formation,"[2]; PLX4032 20 mg/kg oral gavage three times per week, absence of verteporfin, 20 mg/kg",did not suppress
same,matrigel invasion,[3],did not reduce
same,matrigel invasion of tumor-derived cells after in vivo treatment,tumor-derived A375 cells,does not suppress
same,matrigel invasion,"A375 cells [4]; A375, PLX4032 treatment",not suppressed; also recorded: did not impact
same,spheroid formation,"A375 cells [5]; A375 cells, FIGS. 2A-2B",suppressed
same,matrigel invasion,"A375-PLX-R cells [6]; A375-PLX-R, PLX4032 treatment",not suppressed; also recorded: did not impact
same,A375-PLX-R spheroid formation,"A375-PLX-R cells [7]; 0-1 μM PLX4032, no verteporfin, FIG. 5A legend",does not suppress
same,A375-PLX-R spheroid formation,"A375-PLX-R cells [7]; 0-1 mM PLX4032, no verteporfin, FIG. 5A",did not suppress
same,spheroid formation,"A375-PLX-R cells [7]; A375-PLX-R cells, FIGS. 2A-2B",not
same,proliferation of A375-PLX-R cells,A375-PLX-R cells [8],not suppressed
verteporfin,spheroid formation,[1],reduced
same,"YAP1, YAP1-P, TAZ and TEAD levels in tumors","[2]; 10 mg/kg verteporfin/20 mg/kg PLX4032-treated tumors, FIG. 7C",reduction
same,tumor size,"[2]; verteporfin 0-100 mg/kg intraperitoneal three times per week, FIGS. 7A-7B",dose-dependent reduction
same,tumor formation,[2]; verteporfin 10 mg/kg alone,does not suppress
same,PLX4032-dependent suppression of tumor formation,[2]; verteporfin 10 mg/kg with PLX4032 20 mg/kg,restores
same,matrigel invasion,[3],reduced
same,suppression of matrigel invasion at higher verteporfin concentrations,"A375 cells [4]; A375 (FIG. 4D), above 0.5-1 mM",nearly complete
same,pIC50,"A375 cells [4]; A375, FIG. 4D legend, read-out: verteporfin concentration giving 50% suppression of matrigel invasion",6.00 to 6.30
same,pIC50,"A375 cells [5]; A375, FIG. 4A legend, read-out: verteporfin concentration suppressing spheroid formation by 50%",6.60 to 7.00
same,spheroid formation at higher verteporfin concentrations,"A375 cells [5]; A375, above 0.1-0.25 mM",nearly completely inhibited
same,suppression of matrigel invasion at higher verteporfin concentrations,A375-PLX-R cells [6]; A375-PLX-R (FIG. 4E),nearly complete
same,pIC50,"A375-PLX-R cells [6]; A375-PLX-R, FIG. 4E legend, read-out: verteporfin concentration giving 50% suppression of matrigel invasion",6.00 to 6.30
same,pIC50,"A375-PLX-R cells [7]; A375-PLX-R, FIG. 4B legend, read-out: verteporfin concentration suppressing spheroid formation by 50%",6.60 to 7.00
same,spheroid formation at higher verteporfin concentrations,"A375-PLX-R cells [7]; A375-PLX-R, above 0.1-0.25 mM",nearly completely inhibited
same,PLX4032 suppression of spheroid number on verteporfin co-treatment,"A375-PLX-R cells [7]; co-treatment 0.1 μM verteporfin with 0-1 μM PLX4032, FIG. 5A legend",restores
same,PLX4032 suppression of spheroid number on verteporfin co-treatment,"A375-PLX-R cells [7]; co-treatment 0.1 mM verteporfin with 0-1 mM PLX4032, FIG. 5A",restored

# From patent US11246856B2, “Methods of treating resistant cancers” (University of Maryland, Baltimore, priority 2017, dated 2022)
